# Test results reported in the supplement of paper PMC10307832.
# Columns and labels:
# Assay in all cases: relative viability (nuclei count vs DMSO), 5 days (fraction); higher = more cells survive
# [1] = compound: O=C(NC1CCNCC1)c1n[nH]cc1NC(=O)c1c(Cl)cccc1Cl [AT-7519] + Cc1nc(Nc2ncc(C(=O)Nc3c(C)cccc3Cl)s2)cc(N2CCN(CCO)CC2)n1 [Dasatinib] (partner 0.075 µM)
# Summary of the method: (§1)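 Lung cancer cell lines were pin-tool dosed in 1536-well plates on the day after seeding, with either a lone drug or a fixed anchor-drug dose plus five library-drug doses (not always all listed) in √10 steps. Nuclei were counted on 4× images after 5 days. Relative viability is the ratio of treated-well to vehicle-well nuclei counts, with each value a median of duplicate plates.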
# [2] = compound: C1=CC2=C(C=C(C(=C2N=C1)O)N=NC3=CC4=C(C=C3)C=C(C=C4)S(=O)(=O)O)S(=O)(=O)O + CC(C)C[C@H](NC(=O)[C@H](Cc1ccccc1)NC(=O)c1cnccn1)B(O)O [Bortezomib] (partner 0.002 µM)
# Summary of the method: as §1
# [3] = compound: C1=CC2=C(C=C(C(=C2N=C1)O)N=NC3=CC4=C(C=C3)C=C(C=C4)S(=O)(=O)O)S(=O)(=O)O + CS(=O)(=O)N1CCN(Cc2cc3nc(-c4cccc5[nH]ncc45)nc(N4CCOCC4)c3s2)CC1 [Pictilisib] (partner 1 µM)
# Summary of the method: as §1
# [4] = compound: C1=CC2=C(C=C(C(=C2N=C1)O)N=NC3=CC4=C(C=C3)C=C(C=C4)S(=O)(=O)O)S(=O)(=O)O + O=C(c1cc(Cc2n[nH]c(=O)c3ccccc23)ccc1F)N1CCN(C(=O)C2CC2)CC1 [Olaparib] (partner 8 µM)
# Summary of the method: as §1
Cell Line,relative viability ([1]; first compound 0.01 µM),relative viability ([1]; first compound 0.03162 µM),relative viability ([1]; first compound 0.3162 µM),relative viability ([1]; first compound 1 µM),relative viability ([2]; first compound 0.08 µM),relative viability ([2]; first compound 0.253 µM),relative viability ([2]; first compound 0.8 µM),relative viability ([2]; first compound 2.53 µM),relative viability ([2]; first compound 8 µM),relative viability ([3]; first compound 0.08 µM),relative viability ([3]; first compound 0.253 µM),relative viability ([3]; first compound 0.8 µM),relative viability ([3]; first compound 2.53 µM),relative viability ([3]; first compound 8 µM),relative viability ([4]; first compound 0.08 µM),relative viability ([4]; first compound 0.253 µM),relative viability ([4]; first compound 0.8 µM),relative viability ([4]; first compound 2.53 µM),relative viability ([4]; first compound 8 µM)
NCI-H2087,1.14,0.938,0.732,0.108,0.888,0.902,0.856,0.669,0.904,1.07,0.863,0.77,0.945,0.909,0.688,0.651,0.622,0.563,0.601
NCI-H2126,0.658,0.626,0.497,0.357,1.14,1.12,1.11,1.08,1.11,0.505,0.518,0.506,0.522,0.523,0.957,0.901,0.904,0.893,0.874
NCI-H2228,0.407,0.464,0.516,0.352,1.17,1.01,0.917,1.01,0.96,0.435,0.427,0.289,0.567,0.291,0.779,0.772,0.658,0.851,0.751
NCI-H2347,0.375,0.32,0.356,0.0926,1.23,0.962,0.982,0.98,0.955,0.651,0.585,0.541,0.657,0.683,0.569,0.538,0.618,0.569,0.8
NCI-H2405,0.203,0.216,0.199,0.219,1.04,0.952,0.979,0.935,0.4,0.496,0.432,0.33,0.418,0.28,0.85,0.888,0.816,0.898,0.845
NCI-H3122,0.917,0.805,0.809,0.354,0.975,0.899,1.02,0.996,0.987,0.629,0.552,0.555,0.616,0.638,0.643,0.623,0.561,0.644,0.584
PC-3 [JPC-3],0.841,0.99,0.915,1.04,0.908,0.849,0.768,0.794,0.851,0.79,0.771,0.663,0.713,0.694,1.31,1.15,1.17,1.14,1.09
PC-14,0.241,0.239,0.163,0.0573,0.923,0.839,0.906,0.888,0.856,0.845,0.682,0.621,0.585,0.673,0.249,0.275,0.29,0.272,0.246
RERF-LC-KJ,0.903,0.847,0.611,0.195,1.39,1.1,1.08,1.2,1.14,0.623,0.648,0.588,0.56,0.543,0.889,0.964,0.987,0.959,1.02
SK-LU-1,0.171,0.155,0.157,0.163,1.05,0.942,0.963,1.1,0.99,0.615,0.55,0.57,0.61,0.621,0.603,0.475,0.399,0.567,0.512
SW 1573,0.762,0.466,0.255,0.0794,0.931,1.02,1.04,0.976,1.03,0.449,0.431,0.475,0.447,0.523,0.574,0.413,0.523,0.483,0.29
UMC-11,0.413,0.482,0.297,0.238,0.84,0.783,0.708,0.633,0.606,1.05,0.762,0.761,0.908,0.833,0.36,0.381,0.34,0.376,0.317
